Source: the NIST ThermoML archive (doi:10.1016/j.tca.2007.04.012)
Numbers after ± are expanded uncertainties.

Columns and labels:
[1] = xn = mol fraction of the nth substance listed; details: 298.15 K, 101 kPa, Liquid, Vibrating tube method
[2] = excess molar enthalpy (molar enthalpy of mixing); xn = mol fraction of the nth substance listed; details: 298.15 K, 101 kPa, Liquid, Flow calorimetry
[3] = 298.15 K; 101.33 kPa; Liquid; Vibrating tube method

## OCC(F)(F)F [2,2,2-trifluoroethanol] + CO
[1]; x1 = 0.00435
  mass density: 790.62 ± 0.15 kg/m3
[1]; x1 = 0.00909
  mass density: 795.28 ± 0.14 kg/m3
[1]; x1 = 0.01555
  mass density: 801.57 ± 0.14 kg/m3
[1]; x1 = 0.01643
  mass density: 802.43 ± 0.14 kg/m3
[1]; x1 = 0.06693
  mass density: 849.62 ± 0.13 kg/m3
[1]; x1 = 0.1862
  mass density: 949.42 ± 0.16 kg/m3
[1]; x1 = 0.3191
  mass density: 1045.13 ± 0.23 kg/m3
[1]; x1 = 0.385
  mass density: 1087.8 ± 0.25 kg/m3
[1]; x1 = 0.4808
  mass density: 1144.91 ± 0.3 kg/m3
[1]; x1 = 0.5797
  mass density: 1198.76 ± 0.26 kg/m3
[1]; x1 = 0.6905
  mass density: 1253.74 ± 0.22 kg/m3
[1]; x1 = 0.8331
  mass density: 1317.38 ± 0.21 kg/m3
[1]; x1 = 0.9196
  mass density: 1352.57 ± 0.22 kg/m3
[1]; x1 = 0.9701
  mass density: 1372.13 ± 0.23 kg/m3
[1]; x1 = 0.9799
  mass density: 1375.89 ± 0.23 kg/m3
[1]; x1 = 0.9913
  mass density: 1380.01 ± 0.23 kg/m3
[1]; x1 = 0.9949
  mass density: 1381.47 ± 0.23 kg/m3
[1]; x1 = 1
  mass density: 1383.41 ± 0.23 kg/m3
[2]; x1 = 0.00548
  excess molar enthalpy: -0.00519 ± 0.000215 kcal/mol
[2]; x1 = 0.01037
  excess molar enthalpy: -0.00949 ± 0.000263 kcal/mol
[2]; x1 = 0.02045
  excess molar enthalpy: -0.0191 ± 0.000335 kcal/mol
[2]; x1 = 0.02995
  excess molar enthalpy: -0.0283 ± 0.000406 kcal/mol
[2]; x1 = 0.04012
  excess molar enthalpy: -0.0376 ± 0.000478 kcal/mol
[2]; x1 = 0.04831
  excess molar enthalpy: -0.0459 ± 0.00055 kcal/mol
[2]; x1 = 0.09938
  excess molar enthalpy: -0.08521 ± 0.000837 kcal/mol
[2]; x1 = 0.1996
  excess molar enthalpy: -0.1461 ± 0.00134 kcal/mol
[2]; x1 = 0.297
  excess molar enthalpy: -0.1827 ± 0.00163 kcal/mol
[2]; x1 = 0.3988
  excess molar enthalpy: -0.2023 ± 0.00179 kcal/mol
[2]; x1 = 0.4971
  excess molar enthalpy: -0.2035 ± 0.00179 kcal/mol
[2]; x1 = 0.6027
  excess molar enthalpy: -0.194 ± 0.00172 kcal/mol
[2]; x1 = 0.7098
  excess molar enthalpy: -0.1616 ± 0.00146 kcal/mol
[2]; x1 = 0.8044
  excess molar enthalpy: -0.1209 ± 0.00112 kcal/mol
[2]; x1 = 0.8929
  excess molar enthalpy: -0.0647 ± 0.000693 kcal/mol
[2]; x1 = 0.9016
  excess molar enthalpy: -0.0587 ± 0.000645 kcal/mol
[2]; x1 = 0.9113
  excess molar enthalpy: -0.0538 ± 0.000598 kcal/mol
[2]; x1 = 0.9251
  excess molar enthalpy: -0.0452 ± 0.000526 kcal/mol
[2]; x1 = 0.9337
  excess molar enthalpy: -0.0388 ± 0.000478 kcal/mol
[2]; x1 = 0.9463
  excess molar enthalpy: -0.0319 ± 0.00043 kcal/mol
[2]; x1 = 0.9602
  excess molar enthalpy: -0.0246 ± 0.000382 kcal/mol
[2]; x1 = 0.9707
  excess molar enthalpy: -0.0169 ± 0.000311 kcal/mol
[2]; x1 = 0.9838
  excess molar enthalpy: -0.00875 ± 0.000263 kcal/mol
[2]; x1 = 0.9953
  excess molar enthalpy: -0.0028 ± 0.000215 kcal/mol
[2]; x1 = 0.9987
  excess molar enthalpy: -0.000645 ± 0.000191 kcal/mol

## OCC(F)(F)F [2,2,2-trifluoroethanol] + O
[1]; x1 = 0.00478
  mass density: 1005.99 ± 0.04 kg/m3
[1]; x1 = 0.01029
  mass density: 1016.28 ± 0.05 kg/m3
[1]; x1 = 0.01855
  mass density: 1031.19 ± 0.07 kg/m3
[1]; x1 = 0.02226
  mass density: 1037.71 ± 0.07 kg/m3
[1]; x1 = 0.1002
  mass density: 1139.98 ± 0.15 kg/m3
[1]; x1 = 0.1985
  mass density: 1215.51 ± 0.19 kg/m3
[1]; x1 = 0.3
  mass density: 1265.59 ± 0.21 kg/m3
[1]; x1 = 0.3983
  mass density: 1298.93 ± 0.22 kg/m3
[1]; x1 = 0.4965
  mass density: 1322.87 ± 0.23 kg/m3
[1]; x1 = 0.5995
  mass density: 1341.54 ± 0.22 kg/m3
[1]; x1 = 0.7303
  mass density: 1359.16 ± 0.22 kg/m3
[1]; x1 = 0.839
  mass density: 1370.38 ± 0.23 kg/m3
[1]; x1 = 0.9062
  mass density: 1376.17 ± 0.23 kg/m3
[1]; x1 = 0.9696
  mass density: 1381.16 ± 0.23 kg/m3
[1]; x1 = 0.98
  mass density: 1381.89 ± 0.23 kg/m3
[1]; x1 = 0.9899
  mass density: 1382.59 ± 0.23 kg/m3
[1]; x1 = 0.995
  mass density: 1382.97 ± 0.23 kg/m3
[1]; x1 = 1
  mass density: 1383.41 ± 0.23 kg/m3
[2]; x1 = 0.00546
  excess molar enthalpy: -0.00688 ± 0.000239 kcal/mol
[2]; x1 = 0.01088
  excess molar enthalpy: -0.013 ± 0.000287 kcal/mol
[2]; x1 = 0.02028
  excess molar enthalpy: -0.0219 ± 0.000359 kcal/mol
[2]; x1 = 0.0306
  excess molar enthalpy: -0.0252 ± 0.000382 kcal/mol
[2]; x1 = 0.04018
  excess molar enthalpy: -0.0246 ± 0.000382 kcal/mol
[2]; x1 = 0.04984
  excess molar enthalpy: -0.0225 ± 0.000359 kcal/mol
[2]; x1 = 0.05985
  excess molar enthalpy: -0.0196 ± 0.000335 kcal/mol
[2]; x1 = 0.07002
  excess molar enthalpy: -0.0159 ± 0.000311 kcal/mol
[2]; x1 = 0.07952
  excess molar enthalpy: -0.0122 ± 0.000287 kcal/mol
[2]; x1 = 0.08986
  excess molar enthalpy: -0.00791 ± 0.000239 kcal/mol
[2]; x1 = 0.09937
  excess molar enthalpy: -0.00335 ± 0.000215 kcal/mol
[2]; x1 = 0.11
  excess molar enthalpy: 0.000789 ± 0.000191 kcal/mol
[2]; x1 = 0.1193
  excess molar enthalpy: 0.00528 ± 0.000215 kcal/mol
[2]; x1 = 0.1299
  excess molar enthalpy: 0.0097 ± 0.000263 kcal/mol
[2]; x1 = 0.1385
  excess molar enthalpy: 0.0143 ± 0.000287 kcal/mol
[2]; x1 = 0.1486
  excess molar enthalpy: 0.0192 ± 0.000335 kcal/mol
[2]; x1 = 0.1983
  excess molar enthalpy: 0.0424 ± 0.000502 kcal/mol
[2]; x1 = 0.2988
  excess molar enthalpy: 0.08652 ± 0.00086 kcal/mol
[2]; x1 = 0.3988
  excess molar enthalpy: 0.123 ± 0.00115 kcal/mol
[2]; x1 = 0.4955
  excess molar enthalpy: 0.1497 ± 0.00136 kcal/mol
[2]; x1 = 0.5989
  excess molar enthalpy: 0.1661 ± 0.00151 kcal/mol
[2]; x1 = 0.7078
  excess molar enthalpy: 0.1649 ± 0.00148 kcal/mol
[2]; x1 = 0.8079
  excess molar enthalpy: 0.1296 ± 0.0012 kcal/mol
[2]; x1 = 0.898
  excess molar enthalpy: 0.073 ± 0.000741 kcal/mol
[2]; x1 = 0.9054
  excess molar enthalpy: 0.0679 ± 0.000717 kcal/mol
[2]; x1 = 0.9202
  excess molar enthalpy: 0.0573 ± 0.000621 kcal/mol
[2]; x1 = 0.9301
  excess molar enthalpy: 0.0499 ± 0.000574 kcal/mol
[2]; x1 = 0.9387
  excess molar enthalpy: 0.0447 ± 0.000526 kcal/mol
[2]; x1 = 0.9528
  excess molar enthalpy: 0.0344 ± 0.000454 kcal/mol
[2]; x1 = 0.9646
  excess molar enthalpy: 0.0249 ± 0.000382 kcal/mol
[2]; x1 = 0.9732
  excess molar enthalpy: 0.0189 ± 0.000335 kcal/mol
[2]; x1 = 0.988
  excess molar enthalpy: 0.00963 ± 0.000263 kcal/mol
[2]; x1 = 0.9952
  excess molar enthalpy: 0.00335 ± 0.000215 kcal/mol

## CCO [ethanol]
[3]
  mass density: 784.83 ± 0.15 kg/m3

## CCO [ethanol] + OCC(F)(F)F
[1]; x2 = 0
  mass density: 784.83 ± 0.15 kg/m3

## CO [methanol]
[3]
  mass density: 786.3 ± 0.15 kg/m3

## CO [methanol] + OCC(F)(F)F
[1]; x2 = 0
  mass density: 786.3 ± 0.15 kg/m3

## CCCO [propan-1-ol]
[3]
  mass density: 799.3 ± 0.14 kg/m3

## CCCO [propan-1-ol] + OCC(F)(F)F
[1]; x2 = 0
  mass density: 799.3 ± 0.14 kg/m3
